What was measured:
Conditions in all cases: Table 35
MLKL (full length) = MLKL (full length) (Homo sapiens (Human), UniProt Q8NB16); assay: KINOMEscan binding assay, MLKL (full length)
Experimental: (§1) Kinase assays. For most assays, kinase-tagged T7 phage strains were grown in parallel in 24-well blocks in an E. coli host derived from the BL21 strain. E. coli were grown to log-phase and infected with T7 phage from a frozen stock (multiplicity of infection=0.4) and incubated with shaking at 32° C. until lysis (90-150 minutes).
(§2) The Hill Slope was set to −1.

RIP3 = RIP3 (Homo sapiens (Human), UniProt Q9Y572); assay: KINOMEscan binding assay, RIP3
Chain of RIP3 (Q9Y572 whole entry): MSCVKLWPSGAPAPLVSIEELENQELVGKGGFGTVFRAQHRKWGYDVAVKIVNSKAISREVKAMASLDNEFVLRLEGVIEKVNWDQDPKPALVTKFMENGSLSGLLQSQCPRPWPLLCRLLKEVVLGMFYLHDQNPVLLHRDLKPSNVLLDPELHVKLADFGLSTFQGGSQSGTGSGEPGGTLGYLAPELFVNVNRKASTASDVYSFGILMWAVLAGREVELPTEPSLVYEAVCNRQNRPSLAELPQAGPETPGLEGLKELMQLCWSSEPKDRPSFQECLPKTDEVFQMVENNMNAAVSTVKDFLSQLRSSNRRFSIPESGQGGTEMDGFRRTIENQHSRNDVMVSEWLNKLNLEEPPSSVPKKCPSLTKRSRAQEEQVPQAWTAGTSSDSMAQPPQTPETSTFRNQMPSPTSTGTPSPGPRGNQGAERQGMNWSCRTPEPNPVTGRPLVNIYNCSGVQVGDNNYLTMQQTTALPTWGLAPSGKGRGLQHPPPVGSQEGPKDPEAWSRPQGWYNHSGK
Experimental: as §1, §2

RIP1 = RIP1 (Homo sapiens (Human), UniProt Q13546); assay: KINOMEscan binding assay, RIP1
Chain of RIP1 (Q13546 whole entry): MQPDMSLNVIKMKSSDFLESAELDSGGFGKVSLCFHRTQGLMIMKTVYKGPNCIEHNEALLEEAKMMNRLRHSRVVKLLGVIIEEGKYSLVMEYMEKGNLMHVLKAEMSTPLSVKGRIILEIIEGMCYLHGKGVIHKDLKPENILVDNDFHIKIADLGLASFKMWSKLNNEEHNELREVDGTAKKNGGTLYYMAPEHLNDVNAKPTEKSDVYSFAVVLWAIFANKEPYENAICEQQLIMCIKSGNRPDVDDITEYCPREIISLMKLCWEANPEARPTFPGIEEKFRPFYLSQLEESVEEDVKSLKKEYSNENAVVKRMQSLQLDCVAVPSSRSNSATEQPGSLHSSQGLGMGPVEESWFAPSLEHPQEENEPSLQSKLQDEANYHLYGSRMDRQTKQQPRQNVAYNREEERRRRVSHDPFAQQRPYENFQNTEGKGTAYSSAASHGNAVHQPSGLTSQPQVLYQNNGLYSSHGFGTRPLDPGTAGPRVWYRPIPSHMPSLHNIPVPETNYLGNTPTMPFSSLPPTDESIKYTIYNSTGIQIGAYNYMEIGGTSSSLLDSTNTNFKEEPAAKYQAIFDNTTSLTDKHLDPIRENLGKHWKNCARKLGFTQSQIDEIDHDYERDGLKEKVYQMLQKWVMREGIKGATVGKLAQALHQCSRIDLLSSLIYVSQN

Chain of MLKL (full length) (Q8NB16 whole entry): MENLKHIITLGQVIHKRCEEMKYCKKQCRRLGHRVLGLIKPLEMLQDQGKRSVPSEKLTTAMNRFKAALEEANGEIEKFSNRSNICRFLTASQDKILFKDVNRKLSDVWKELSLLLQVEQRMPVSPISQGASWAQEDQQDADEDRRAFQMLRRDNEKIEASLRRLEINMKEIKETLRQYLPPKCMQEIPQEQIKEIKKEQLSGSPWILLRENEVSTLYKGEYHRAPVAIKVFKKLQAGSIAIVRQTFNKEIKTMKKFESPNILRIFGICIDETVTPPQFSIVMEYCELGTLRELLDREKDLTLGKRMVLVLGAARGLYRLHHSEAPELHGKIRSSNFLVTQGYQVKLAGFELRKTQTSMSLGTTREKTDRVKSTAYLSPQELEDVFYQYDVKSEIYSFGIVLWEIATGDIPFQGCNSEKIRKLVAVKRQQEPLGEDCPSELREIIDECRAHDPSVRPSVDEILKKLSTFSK

Row | Kd (MLKL (full length)) | Kd (RIP3) | Kd (RIP1) | Structure (SMILES)
1 | < 0.01 µM | > 30 µM | > 30 µM | CCC(Oc1cc(-c2n[nH]c(Nc3cnccn3)c2C(N)=O)ccc1NS(=O)(=O)C(F)F)c1ccc(F)cc1 (racemic) [Compound 233, 3-[4-(difluoromethanesulfonamido)-3-[1-(4-fluorophenyl)propoxy]phenyl]-5-[(pyrazin-2-yl)amino]-1H-pyrazole-4-carboxamide]
2 | < 0.01 µM | > 30 µM | > 30 µM | CC(Oc1cc(-c2n[nH]c(Nc3cnccn3)c2C(N)=O)ccc1NS(=O)(=O)C(F)F)c1ncco1 (racemic) [Compound 293, 3-(4-((difluoro-methyl)sulfon-amido)-3-(1-(oxazol-2-yl)ethoxy)phenyl)-5-(pyrazin-2-ylamino)-1H-pyrazole-4-carboxamide]
3 | < 0.01 µM | > 30 µM | > 30 µM | COCC(Oc1cc(-c2n[nH]c(Nc3cc(C)on3)c2C(N)=O)ccc1NS(=O)(=O)C(F)F)c1ccc(F)cc1 (racemic) [Compound 298, 3-(4-((difluoromethyl)sulfonamido)-3-(1-(4-fluorophenyl)-2-methoxyethoxy)phenyl)-5-((5-methylisoxazol-3-yl)amino)-1H-pyrazole-4-carboxamide]
4 | < 0.01 µM | > 30 µM | > 30 µM | CCS(=O)(=O)Nc1ccc(-c2n[nH]c(Nc3cnccn3)c2C(N)=O)cc1OCc1ccc(F)c(F)c1 [Compound 1, 3-(3-((3,4-difluorobenzyl)oxy)-4-(ethylsulfonamido)phenyl)-5-(pyrazin-2-ylamino)-1H-pyrazole-4-carboxamide]
5 | 0.01 to 1 µM | > 30 µM | > 30 µM | CC(C)(C)n1nc(-c2ccc(N)c(OCc3ccc(F)cc3)c2)c(C(N)=O)c1Nc1cccc(C(F)(F)F)n1 [Compound 5, 3-(4-amino-3-((4-fluorobenzyl)oxy)phenyl)-1-(tert-butyl)-5-((6-(trifluoromethyl)pyridin-2-yl)amino)-1H-pyrazole-4-carboxamide]
6 | < 0.01 µM | > 30 µM | > 30 µM | CCS(=O)(=O)Nc1ccc(-c2n[nH]c(Nc3cccc(OC)n3)c2C(N)=O)cc1OCc1ccc(F)cc1 [Compound 11, 3-(4-(ethylsulfonamido)-3-((4-fluorobenzyl)oxy)phenyl) 5-((6-methoxypyridin-2-yl)amino)-1H-pyrazole-4-carboxamide]
7 | < 0.01 µM | > 30 µM | > 30 µM | CCS(=O)(=O)Nc1ccc(-c2n[nH]c(Nc3cnc(OC)cn3)c2C(N)=O)cc1OCc1ccc(F)cc1 [Compound 14, 3-(4-(ethylsulfonamido)-3-((4-fluorobenzyl)oxy)phenyl) 5-((5-methoxypyrazin-2-yl)amino)-1H-pyrazole-4-carboxamide]
8 | < 0.01 µM | > 30 µM | > 30 µM | CCS(=O)(=O)Nc1ccc(-c2n[nH]c(Nc3cncc(OC)n3)c2C(N)=O)cc1OCc1ccc(F)cc1 [Compound 15, 3-(4-(ethylsulfonamido)-3-((4-fluorobenzyl)oxy)phenyl) 5-((6-methoxypyrazin-2-yl)amino)-1H-pyrazole-4-carboxamide]
9 | < 0.01 µM | > 30 µM | > 30 µM | CCS(=O)(=O)Nc1ccc(-c2n[nH]c(Nc3cncc(C(F)(F)F)n3)c2C(N)=O)cc1OCc1ccc(F)cc1 [Compound 17, 3-(4-(ethylsulfonamido)-3-((4-fluorobenzyl)oxy)phenyl)5-((6-(trifluoromethyl)pyrazin-2-yl)amino)-1H-pyrazole-4-carboxamide]
10 | < 0.01 µM | > 30 µM | > 30 µM | CCS(=O)(=O)Nc1ccc(-c2n[nH]c(Nc3ccccn3)c2C(N)=O)cc1OCc1ccccc1 [Compound 20, 3-(3-(benzyloxy)-4-(ethylsulfon-amido)phenyl)-5-(pyridin-2-ylamino)-1H-pyrazole-4-carboxamide]
11 | < 0.01 µM | > 30 µM | > 30 µM | CCS(=O)(=O)Nc1ccc(-c2n[nH]c(Nc3cnccn3)c2C(N)=O)c(OCc2ccc(F)cc2)c1 [Compound 21, 3-(4-(ethylsulfonamido)-2-((4-fluorobenzyl)oxy)phenyl)-5-(pyrazin-2-ylamino)-1H-pyrazole-4-carboxamide]
12 | < 0.01 µM | > 30 µM | > 30 µM | NC(=O)c1c(-c2ccc(NS(=O)(=O)CCC(F)F)cc2)n[nH]c1Nc1cnccn1 [Compound 23, 3-(4-((3,3-difluoropropyl)sulfonamido)phenyl)-5-(pyrazin-2-ylamino)-1H-pyrazole-4-carboxamide]
13 | < 0.01 µM | > 30 µM | > 30 µM | CCS(=O)(=O)Nc1ccc(-c2n[nH]c(Nc3cnccn3)c2C(N)=O)cc1OCCc1ccc(F)cc1 [Compound 24]
14 | < 0.01 µM | > 30 µM | > 30 µM | CCS(=O)(=O)Nc1ccc(-c2n[nH]c(Nc3cnccn3)c2C(N)=O)cc1OCc1ccccc1 [Compound 25, 3-(3-(benzyloxy)-4-(ethylsulfonamido)phenyl)-5-(pyrazin-2-ylamino)-1H-pyrazole-4-carboxamide]
15 | < 0.01 µM | > 30 µM | > 30 µM | CCS(=O)(=O)Nc1ccc(-c2n[nH]c(Nc3cnccn3)c2C(N)=O)cc1OCc1cccc(F)c1 [Compound 26, 3-(4-(ethylsulfonamido)-3-((3-fluorobenzyl)oxy)phenyl)-5-(pyrazin-2-ylamino)-1H-pyrazole-4-carboxamide]
16 | < 0.01 µM | > 30 µM | > 30 µM | CCS(=O)(=O)Nc1ccc(-c2n[nH]c(Nc3ccccn3)c2C(N)=O)cc1OCc1ccncc1 [Compound 27, 3-(4-(ethylsulfon-amido)-3-(pyridin-4-ylmethoxy)phenyl)-5-(pyridin-2-ylamino)-1H-pyrazole-4-carboxamide]
17 | < 0.01 µM | > 30 µM | > 30 µM | CCS(=O)(=O)Nc1ccc(-c2n[nH]c(Nc3cnccn3)c2C(N)=O)cc1OCc1ccncc1 [Compound 28, 3-(4-(ethylsulfonamido)-3-(226yridine-4-ylmethoxy)phenyl)-5-(pyrazin-2-ylamino)-1H-pyrazole-4-carboxamide]
18 | < 0.01 µM | > 30 µM | > 30 µM | N#CCS(=O)(=O)Nc1ccc(-c2n[nH]c(Nc3cccc(C(F)(F)F)n3)c2C(N)=O)cc1 [Compound 29, 3-(4-((cyanomethyl)sulfonamido)phenyl)-5-((6-(trifluoromethyl)pyridin-2-yl)amino)-1H-pyrazole-4-carboxamide]
19 | < 0.01 µM | > 30 µM | > 30 µM | CCS(=O)(=O)Nc1ccc(-c2n[nH]c(Nc3ccccn3)c2C(N)=O)cc1OCc1ccc(F)cc1 [Compound 30, 3-(4-(ethylsulfon-amido)-3-((4-fluorobenzyl)oxy)phenyl)-5-(pyridin-2-ylamino)-1H-pyrazole-4-carboxamide]
20 | < 0.01 µM | > 30 µM | > 30 µM | CCS(=O)(=O)Nc1ccc(-c2n[nH]c(Nc3ccccn3)c2C(N)=O)cc1OCc1cccnc1 [Compound 31, 3-(4-(ethylsulfon-amido)-3-(pyridin-3-ylmethoxy)phenyl)-5-(pyridin-2-ylamino)-1H-pyrazole-4-carboxamide]
21 | < 0.01 µM | > 30 µM | > 30 µM | CCS(=O)(=O)Nc1ccc(-c2n[nH]c(Nc3cnc(C(C)C)cn3)c2C(N)=O)cc1OCc1ccc(F)cc1 [Compound 34, 3-(4-(ethylsulfonamido)-3-((4-fluorobenzyl)oxy)phenyl) 5-((5-isopropylpyrazin-2-yl)amino)-1H-pyrazole-4-carboxamide]
22 | < 0.01 µM | > 30 µM |  | CCS(=O)(=O)Nc1ccc(-c2n[nH]c(Nc3ccccn3)c2C(N)=O)cc1OCc1ccc(Cl)cc1 [Compound 39, 3-(3-((4-chlorobenzyl)oxy)-4-(ethylsulfon-amido)phenyl)-5-(pyridin-2-ylamino)-1H-pyrazole-4-carboxamide]
23 | < 0.01 µM | > 30 µM | > 30 µM | CCS(=O)(=O)Nc1ccc(-c2n[nH]c(Nc3cnccn3)c2C(N)=O)cc1OCC1CCCC1 [Compound 40, 3-(3-(cyclopentyl-methoxy)-4-(ethylsulfonamido)phenyl)-5-(pyrazin-2-ylamino)-1H-pyrazole-4-carboxamide]
24 | < 0.01 µM | > 30 µM | > 30 µM | CCS(=O)(=O)Nc1ccc(-c2n[nH]c(Nc3cnccn3)c2C(N)=O)cc1OCc1cccc(Cl)c1 [Compound 41, 3-(3-((3-chlorobenzyl)oxy)-4-(ethylsulfonamido)phenyl)-5-(pyrazin-2-ylamino)-1H-pyrazole-4-carboxamide]
25 | < 0.01 µM | > 30 µM | > 30 µM | CCS(=O)(=O)Nc1ccc(-c2n[nH]c(Nc3cnccn3)c2C(N)=O)cc1OCc1ccc(Cl)cc1 [Compound 42, 3-(3-((4-chlorobenzyl)oxy)-4-(ethylsulfonamido)phenyl)-5-(pyrazin-2-ylamino)-1H-pyrazole-4-carboxamide]
26 | < 0.01 µM | > 30 µM | > 30 µM | CCS(=O)(=O)Nc1ccc(-c2n[nH]c(Nc3cnccn3)c2C(N)=O)cc1OCC1CCCCC1 [Compound 47, 3-(3-(cyclohexyl-methoxy)-4-(ethylsulfonamido)phenyl)-5-(pyrazin-2-ylamino)-1H-pyrazole-4-carboxamide]
27 | < 0.01 µM | > 30 µM | > 30 µM | NC(=O)c1c(-c2ccc(NS(=O)(=O)C(F)F)cc2)n[nH]c1Nc1ccccn1 [Compound 48, 3-(4-((difluoromethyl)sulfonamido)phenyl)-5-(pyridin-2-ylamino)-1H-pyrazole-4-carboxamide]

Row | Structure (SMILES) | Kd (MLKL (full length)) | Kd (RIP3) | Kd (RIP1)
28 | CCS(=O)(=O)Nc1ccc(-c2n[nH]c(Nc3cnccn3)c2C(N)=O)cc1OCc1cccnc1 [Compound 32, 3-(4-(ethylsulfonamido)-3-(226yridine-3-ylmethoxy)phenyl)-5-(pyrazin-2-ylamino)-1H-pyrazole-4-carboxamide] | < 0.01 µM | > 30 µM | > 30 µM
